In patent US20150196025A1, “BIOACTIVE HEME-HALOPEROXIDASE COMPOSITIONS AND METHODS OF THEIR USE” (Exoxemis, Inc., priority 2014, published 2015):

Legend:
Type in all cases: cell-based, Staphylococcus aureus
S. aureus [1] = assay: Microbicidal plate assay, pEPO with amine additives, aged 0 or 5 minutes with H2O2 (Example 7); details: FIG. 7, 10 ug/mL pEPO, additive 3 mM, 2 mM NaBr; for microbicidal activity, Reaction 2 (aged 5 minutes with H2O2): 0.89 mM H2O2; for microbicidal activity, Reaction 1 (aged 0 min): 0.89 mM H2O2, one minute, 10^8 cfu/mL
S. aureus [2] = assay: Microbicidal plate assay, pEPO formulations aged two minutes to ninety-six hours with H2O2 (Examples 8 and 9); details: 50 ug/mL pEPO, 20 mM additive; for microbicidal activity, Reaction 2 (aged twenty-four hours): FIG. 9B; for microbicidal activity, Reaction 2 (aged twenty-four hours) / retention of microbicidal activity on ageing / microbicidal activity, Reaction 1 (aged two minutes): 10 mM NaBr, 8.9 mM H2O2; for retention of microbicidal activity on ageing: FIGS. 8A-8C, aged two minutes, twenty-four or ninety-six hours; for kill of the microbes added to aged formulations: aged for up to ninety-six hours before the addition of bacteria; for microbicidal activity, Reaction 1 (aged two minutes): FIG. 9A
S. aureus [3] = assay: Microbicidal plate assay, formulations aged 1 or 30 minutes before adding bacteria, with or without ethanolamine (Examples 5 and 6); details: FIG. 6 compared to FIG. 5
Method: S. aureus (10^9 cfu/mL, final concentration) was added and the reaction was incubated at room temperature for one minute. The reaction was stopped by plating. The plates were incubated overnight at 36° C.
The reactions described in Example 4 were repeated with Formulations F for plates 2-5 with the added condition that the formulations were incubated (aged) 1 or 30 minutes prior to adding the S. aureus bacteria. The reaction was incubated at room temperature for one minute after the addition of bacteria. An additional sample was added (100 μg/mL pEPO; 8.9 mM H2O2; 20 mM ethanolamine; and 20 mmM NaBr).
The reactions were carried out as described in Example 5.

S. aureus [4] = assay: Microbicidal plate assay, hydrogen peroxide/pEPO/ethanolamine versus neat hydrogen peroxide (Example 4)

Structure (SMILES): OCCNCCO [diethanolamine]
- microbicidal activity, Reaction 2 (aged 5 minutes with H2O2) (S. aureus [1]): maintained microbicidal activity
- microbicidal activity, Reaction 1 (aged 0 min) (S. aureus [1]): some microbicidal activity

Structure (SMILES): NCCO [ethanolamine]
- microbicidal activity, Reaction 2 (aged 5 minutes with H2O2) (S. aureus [1]): maintained microbicidal activity
- microbicidal activity, Reaction 1 (aged 0 min) (S. aureus [1]): some microbicidal activity
- microbicidal activity, Reaction 2 (aged twenty-four hours) (S. aureus [2]): retain microbicidal activity for twenty-four hours
- retention of microbicidal activity on ageing (S. aureus [2]): retain microbicidal activity up to at least ninety-six hours
- kill of the microbes added to aged formulations (S. aureus [2]): complete kill
- effect of ethanolamine on microbicidal activity (S. aureus [3]): significantly enhances the microbicidal activity of pEPO/H2O2 compositions

Structure (SMILES): NCC(N)=O [glycinamide, Glycinamide, reference compound]
- microbicidal activity, Reaction 1 (aged two minutes) (S. aureus [2]): show initial microbicidal activity
- microbicidal activity, Reaction 2 (aged twenty-four hours) (S. aureus [2]): lose microbicidal activity after twenty-four hours

Structure (SMILES): COC(=O)CN [glycine methyl ester, Glycine methyl ester, reference compound]
- microbicidal activity, Reaction 1 (aged two minutes) (S. aureus [2]): show initial microbicidal activity
- microbicidal activity, Reaction 2 (aged twenty-four hours) (S. aureus [2]): lose microbicidal activity after twenty-four hours

Structure (SMILES): OO [hydrogen peroxide]
- concentration of H2O2 effective to result in a complete kill (as low as) (S. aureus [4]): 0.5 mM
- killing the bacteria by neat hydrogen peroxide (S. aureus [4]; 89 mM (0.3%), no pEPO, one minute): ineffective in killing the bacteria
- kill of the bacteria (S. aureus [4]; hydrogen peroxide 0.5 mM with the addition of pEPO, Plate 2): 100%

Structure (SMILES): NCCCO [propanolamine]
- retention of microbicidal activity on ageing (S. aureus [2]): retain microbicidal activity up to at least ninety-six hours
- kill of the microbes added to aged formulations (S. aureus [2]): complete kill

Structure (SMILES): N[C@@H](CO)C(=O)O [serine, L-serine, reference compound]
- microbicidal activity, Reaction 2 (aged 5 minutes with H2O2) (S. aureus [1]): only formulations comprising pEPO and ethanolamine or diethanolamine maintained microbicidal activity
- microbicidal activity, Reaction 1 (aged 0 min) (S. aureus [1]): some microbicidal activity
